We go through six molecules from the NIST ThermoML archive (doi:10.1016/j.fluid.2018.07.020).

± gives the expanded uncertainty stated by the source.

Series [1] in a line: Molar enthalpy of transition or fusion. Conditions: DSC.
For series [2] the following is noted: for Normal melting temperature: Crystal 1, DTA; for Triple point temperature: Crystal 2, DSC.

Turning to `CCCC[P+](CCCC)(CCCC)CCCS(=O)(=O)[O-]` [3-(tributylphosphonio)propane-1-sulfonate], the “Molar enthalpy of transition or fusion” value in series [1] (Crystal 1) came to 9.7 ± 2.2 kJ/mol. Also, the “Molar enthalpy of transition or fusion” value in series [1] (Crystal 2) amounted to 12.9 ± 2.2 kJ/mol. Also, in series [2], the Normal melting temperature was 160.02 ± 0.71 °C and the Triple point temperature is 379.9 ± 0.94 K.
In the same order, the values of `CCCCCC[N+](CCCCCC)(CCCCCC)CCCCS(=O)(=O)[O-]` [4-(trihexylammonio)butane-1-sulfonate] are 18 ± 2.8 kJ/mol, 6 ± 2.8 kJ/mol, 199.60 ± 0.71 °C and 407.51 ± 0.94 K.
On to `CC[N+](CC)(CC)CCCS(=O)(=O)[O-]` [3-(triethylammonio)propane-1-sulfonate], for which the “Molar enthalpy of transition or fusion” value turned out to be 15.3 ± 1.5 kJ/mol in series [1] (Crystal 1) and 9.7 ± 1.4 kJ/mol in series [1] (Crystal 2). Besides, the Normal melting temperature in series [2] worked out at 172.88 ± 0.71 °C. For the same molecule, the Triple point temperature in series [2] is listed as 360.22 ± 0.94 K.
With `O=S(=O)([O-])CCC[n+]1ccccc1` [[PyC3S]], the “Molar enthalpy of transition or fusion” value in series [1] (Crystal 1) was 39.5 ± 1.4 kJ/mol. In addition, the Normal melting temperature in series [2] came out at 273.89 ± 0.71 °C.
In the case of `CCCC[P+](CCCC)(CCCC)CCCCS(=O)(=O)[O-]` [4-(tributylphosphonio)butane-1-sulfonate], in series [1] (Crystal 1), the “Molar enthalpy of transition or fusion” value was found to be 19.7 ± 2.3 kJ/mol. In series [2], the Normal melting temperature came out at 173.57 ± 0.71 °C.
As for `CCCCCC[N+](CCCCCC)(CCCCCC)CCCS(=O)(=O)[O-]` [3-(trihexylammonio)propane-1-sulfonate], the “Molar enthalpy of transition or fusion” value in series [1] (Crystal 1) turned out to be 28.4 ± 2.7 kJ/mol. In series [2], the Normal melting temperature turned out to be 206.74 ± 0.71 °C.
